The nature of data set [1]: Selectivity index, ratio of CC50 for cytotoxicity against human CEM cells to EC50 for antiviral activity against HIV-2 ROD infected in thymidine kinase deficient human CEM cells. The class given is toxicity, cell-based. The conditions noted are these: read-out: Ratio CC50/EC50.
A short description of data set [2]: Cytotoxicity against human CEM cells assessed as inhibition of cell proliferation. It is filed as toxicity, cell-based, CCRF-CEM.
Data set [3] is described as follows: Lipophilicity of the compound assessed as retention time by RP-HPLC analysis. The class given is physicochemical.
Data set [4] has as its system Human immunodeficiency virus 2. As to the kind of experiment: Antiviral activity against HIV-2 ROD infected in thymidine kinase deficient human CEM cells assessed as inhibition of virus-induced giant cell formation incubated for 4 to 5 days by light microscopy. It is filed as functional, organism-based. Particulars: Human immunodeficiency virus 2, ROD, CCRF-CEM.
Data set [5] has as its system Human immunodeficiency virus 1. As to the kind of experiment: Antiviral activity against HIV-1 HE infected in wild type human CEM/0 cells assessed as inhibition of virus-induced giant cell formation incubated for 4 to 5 days by light microscopy. It is filed as functional, organism-based. Particulars: Human immunodeficiency virus 1, HE, CCRF-CEM.
The nature of data set [6]: Prodrug conversion of the compound in phosphate buffer saline assessed as (R)-9-(2-(phosphonomethoxy)propyl)adenine formation by measuring half life at pH 7.3 by RP18-HPLC analysis. The class given is ADME.
Data set [7] can be described thus: Half life of the compound in human CEM/0 cell extracts by RP18-HPLC analysis. It is filed as ADME, CCRF-CEM.
In data set [8] the test system is Human immunodeficiency virus 2. Put plainly: Antiviral activity against HIV-2 ROD infected in wild type human CEM/0 cells assessed as inhibition of virus-induced giant cell formation incubated for 4 to 5 days by light microscopy. It is filed as functional, organism-based. Particulars: Human immunodeficiency virus 2, ROD, CCRF-CEM.
In data set [9] the test system is Human immunodeficiency virus. As to the kind of experiment: Substrate activity at HIV reverse transcriptase assessed as elongation of primer at 250 uM incubated for 30 mins in presence of primer/template mixture and dNTPs by primer extension assay based fluorescence analysis.
The nature of data set [10]: Half life of the compound in phosphate buffer saline at pH 7.3 by RP18-HPLC analysis. The class given is ADME.
Data set [11] relates to Human immunodeficiency virus. Put plainly: Substrate activity at HIV reverse transcriptase assessed as elongation of primer at 250 uM incubated for 30 mins in presence of primer/template mixture by primer extension assay based fluorescence analysis.
Data set [12] has as its target T1, DNA polymerase subunit gamma-1 (Homo sapiens) (UniProt P54098).
T1 sequence (whole entry): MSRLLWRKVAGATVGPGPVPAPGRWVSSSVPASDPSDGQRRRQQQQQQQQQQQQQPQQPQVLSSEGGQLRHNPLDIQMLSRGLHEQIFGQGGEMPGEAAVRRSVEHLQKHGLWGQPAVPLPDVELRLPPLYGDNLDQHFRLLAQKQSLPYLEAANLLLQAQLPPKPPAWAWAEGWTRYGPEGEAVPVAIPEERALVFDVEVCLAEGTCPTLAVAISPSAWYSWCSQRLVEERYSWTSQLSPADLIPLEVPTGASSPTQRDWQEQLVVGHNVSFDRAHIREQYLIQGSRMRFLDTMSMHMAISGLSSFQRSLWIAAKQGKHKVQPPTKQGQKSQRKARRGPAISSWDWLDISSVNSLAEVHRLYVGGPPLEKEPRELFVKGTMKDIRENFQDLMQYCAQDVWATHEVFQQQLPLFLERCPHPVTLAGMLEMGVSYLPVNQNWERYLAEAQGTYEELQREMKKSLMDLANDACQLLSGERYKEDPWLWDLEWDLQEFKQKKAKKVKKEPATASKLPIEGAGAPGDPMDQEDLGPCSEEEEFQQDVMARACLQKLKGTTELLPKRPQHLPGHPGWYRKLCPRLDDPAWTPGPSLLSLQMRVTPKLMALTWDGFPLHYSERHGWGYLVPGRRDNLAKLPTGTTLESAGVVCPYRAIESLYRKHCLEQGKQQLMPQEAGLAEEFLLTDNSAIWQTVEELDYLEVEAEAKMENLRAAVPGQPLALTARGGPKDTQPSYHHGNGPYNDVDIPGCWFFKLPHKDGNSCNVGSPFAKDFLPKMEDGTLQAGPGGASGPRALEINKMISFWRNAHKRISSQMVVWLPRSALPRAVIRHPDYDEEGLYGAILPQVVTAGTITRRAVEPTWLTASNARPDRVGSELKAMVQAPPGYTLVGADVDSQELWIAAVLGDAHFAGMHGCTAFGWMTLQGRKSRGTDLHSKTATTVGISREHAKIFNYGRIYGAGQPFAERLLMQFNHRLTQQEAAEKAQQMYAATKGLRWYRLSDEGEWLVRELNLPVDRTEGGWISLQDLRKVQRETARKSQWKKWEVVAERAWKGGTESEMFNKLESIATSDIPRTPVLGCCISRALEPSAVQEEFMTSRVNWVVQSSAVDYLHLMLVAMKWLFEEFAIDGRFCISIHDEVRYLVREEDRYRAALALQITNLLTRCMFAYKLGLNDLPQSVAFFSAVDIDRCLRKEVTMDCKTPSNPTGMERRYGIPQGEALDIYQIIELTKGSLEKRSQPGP
Put plainly: Substrate activity at human DNA polymerase gamma assessed as elongation of primer at 250 uM incubated for 120 mins in presence of primer/template mixture by primer extension assay based fluorescence analysis.

Data set [13] has as its system Human immunodeficiency virus. Put plainly: Substrate activity at HIV reverse transcriptase assessed as n+1 band formation incubated for 30 mins in presence of primer/template mixture and dNTPs by primer extension assay based fluorescence analysis.
A short description of data set [14]: Half life of the compound in heparin-stabilized human plasma by HPLC analysis. The class given is ADME, cell-free.
A short description of data set [15]: Half life of the compound in citrate-containing human plasma by HPLC analysis. The class given is ADME, cell-free.
Data set [16] in a line: Prodrug conversion of the compound in phosphate buffer saline assessed as (R)-9-(2-(phosphonomethoxy)propyl)adenine formation by measuring half life in presence of pig liver esterase at pH 7.3 by RP18-HPLC analysis. It is filed as ADME, Sus scrofa.
The nature of data set [17]: Half life of the compound in phosphate buffer saline in presence of pig liver esterase at pH 7.3 by RP18-HPLC analysis. It is filed as ADME, Sus scrofa.

Activity calls are given as the source filed them. The rule behind the calls is not given here.

As to `CCCCCCCCCCCCCCCCCCOP(=O)(OCc1ccc(OC(=O)CCCCCC)cc1)OP(=O)(O)OP(=O)(O)CO[C@H](C)Cn1cnc2c(N)ncnc21` (some centres not stated), the selectivity ratio in data set [1] was over 256. Besides, the CC50 (commonly the concentration that lowers cell viability or growth by half) in data set [2] is over 100000 nM. For the same compound, the Retention_time in data set [3] is 18.1 min. The values for the half-maximal effective concentration (EC50) in data set [4], in data set [5] and in [8] were 390 nM, 6960 nM and 10300 nM, respectively. In [6], the t1/2 was 111 h. The half-life (in general, how long it takes for the measured level to halve) in data set [7] was 1.9 h.
Consider `CCCCCCCCCCCOP(=O)(OCc1ccc(OC(=O)CCCCCCCC)cc1)OP(=O)(O)OP(=O)(O)CO[C@H](C)Cn1cnc2c(N)ncnc21` (some centres not stated), for which, in data set [1], the selectivity ratio is over 185. Besides, the CC50 in data set [2] was over 100000 nM. Also, the EC50 (usually the concentration at which the effect is half-maximal) in [4] worked out at 540 nM; in [5], 1230 nM; in data set [8], 620 nM.
Take `C[C@H](Cn1cnc2c(N)ncnc21)OCP(=O)(O)O` [TENOFOVIR ANHYDROUS]: the selectivity ratio in data set [1] is over 113. The half-maximal cytotoxic concentration (CC50) in data set [2] is over 100000 nM. The Retention_time in [3] came out at 6.6 min. Moreover, the EC50 amounted to 880 nM in [4], 2080 nM in [5] and 1760 nM in data set [8]. Further, the outcome in data set [9] was Active. In addition, the half-life in data set [10] was over 1000 h. Besides, the result in data set [11] and in [12] was inactive.
Consider `CCCCCCCCCCCCCCCCCCOP(=O)(OCc1ccc(OC(=O)CC)cc1)OP(=O)(O)OP(=O)(O)CO[C@H](C)Cn1cnc2c(N)ncnc21` (some centres not stated), for which the selectivity ratio in data set [1] stood at 762. Moreover, the CC50 in data set [2] is 51100 nM. Further, in data set [3], the Retention_time was found to be 16.8 min. Also, the 50% effective concentration (EC50) in data set [4] came out at 67 nM; in [5], 390 nM; in data set [8], 120 nM. Moreover, in data set [6], the t1/2 was 72 h. The same compound showed a half-life in data set [7] of 2.6 h.
With `CCCCCCCCCCCCCCCCCCOP(=O)(OCCCCCCCC)OP(=O)(O)OP(=O)(O)CO[C@H](C)Cn1cnc2c(N)ncnc21` (some centres not stated), the selectivity ratio in data set [1] turned out to be 447. Moreover, the CC50 in [2] was 44700 nM. For the same compound, in data set [3], the Retention_time worked out at 16.6 min. Besides, the EC50 in data set [4] was 100 nM; in data set [5], 160 nM; in data set [8] it was 50 nM. The half-life was over 8 h in [7] and 207 h in data set [10].
For `Nc1ncnc2c1ncn2[C@H]1C[C@H](O)[C@@H](COP(=O)(O)OP(=O)(O)OP(=O)(O)O)O1`, the result in [13] was Active.
Regarding `C[C@H](Cn1cnc2c(N)ncnc21)OCP(=O)(O)OP(=O)(O)O`, the outcome in data set [9] and in data set [11] was Active. Moreover, the result in [12] was inactive.
As to `CC(C)OC(=O)[C@H](C)N[P@](=O)(CO[C@H](C)Cn1cnc2c(N)ncnc21)Oc1ccccc1.CC(C)OC(=O)[C@H](C)N[P@](=O)(CO[C@H](C)Cn1cnc2c(N)ncnc21)Oc1ccccc1.O=C(O)/C=C/C(=O)O` [TENOFOVIR ALAFENAMIDE FUMARATE], the half-life in data set [14] and in [15] was 1.5 h throughout.
Regarding `CCCCCCCCCCCC(=O)Oc1ccc(COOP(=O)(O)OP(=O)(O)OP(=O)(O)CO[C@H](C)Cn2cnc3c(N)ncnc32)cc1`, the selectivity ratio in data set [1] is over 333. The half-maximal cytotoxic concentration (CC50) in data set [2] is over 100000 nM. For the same compound, the results for the half-maximal effective concentration (EC50) in data set [4], in [5] and in data set [8] were 300 nM, 460 nM and 230 nM, respectively.
Take `CC(C)OC(=O)OCOP(=O)(CO[C@H](C)Cn1cnc2c(N)ncnc21)OCOC(=O)OC(C)C.O=C(O)/C=C/C(=O)O` [TENOFOVIR DISOPROXIL FUMARATE]: the selectivity ratio in [1] is over 1430. Besides, the half-life in [14] was 0.167 h; in [10] it was 27.8 h; in data set [15], 0.167 h. Besides, in [2], the cytotoxic concentration (CC50) was over 5000 nM. The Retention_time in data set [3] amounted to 10.1 min. In addition, the EC50 in data set [4] was 3 nM; in [5] it was 13 nM; in data set [8] it was 3 nM.
As for `CCCCOP(=O)(OCCCC)OP(=O)(O)OP(=O)(O)CO[C@H](C)Cn1cnc2c(N)ncnc21`, the selectivity ratio in [1] is over 39. For the same compound, the 50% cytotoxic concentration (CC50) in [2] is over 100000 nM. In addition, the Retention_time in data set [3] is 9.7 min. In addition, the figures for the EC50 in data set [4], in data set [5] and in data set [8] were 2540 nM, 4270 nM and 1220 nM, respectively. In addition, the half-life in data set [10] is over 1000 h.
With `CCCCCCCCCCCCCCCCCCOP(=O)(OCc1ccc(OC(=O)CCCCCCCC)cc1)OP(=O)(O)OP(=O)(O)CO[C@H](C)Cn1cnc2c(N)ncnc21` (some centres not stated), the selectivity ratio in [1] was over 322. Also, the cytotoxic concentration (CC50) in [2] was over 100000 nM. In addition, in [3], the Retention_time was found to be 19.1 min. Also, the EC50 was determined as 310 nM in [4], 450 nM in [5] and 770 nM in [8]. Further, the t1/2 in data set [16] worked out at 2.15 h; in [6] it was 24 h. Besides, in data set [7], the half-life is 3.5 h.
Turning to `CCCCCCCCCCCCOP(=O)(OCCCCCCCCCCCC)OP(=O)(O)OP(=O)(O)CO[C@H](C)Cn1cnc2c(N)ncnc21`, the selectivity ratio in data set [1] amounted to 688. The 50% cytotoxic concentration (CC50) in data set [2] is 44700 nM. The half-life is over 100 h in data set [17], over 20 h in [7] and 220 h in data set [10]. Moreover, in data set [3], the Retention_time was 15.6 min. For the same compound, the EC50 amounted to 65 nM in data set [4], 61 nM in [5] and 35 nM in data set [8].
Take `CCCCCCCCCCCCCCCCCCP(=O)(OCCCCCCCC)OP(=O)(O)CO[C@H](C)Cn1cnc2c(N)ncnc21` (some centres not stated): the selectivity ratio in data set [1] is 2050. Further, the half-maximal cytotoxic concentration (CC50) in data set [2] was determined as 45200 nM. Moreover, in data set [3], the Retention_time was found to be 20.1 min. The EC50 in data set [4] is 22 nM; in data set [5], 73 nM; in data set [8], 32 nM. In addition, the half-life in [7] is over 8 h; in [10], 26.5 h.
